{
  "source": "patent US20240174649A1",
  "about": "“CULLIN-RING E3 UBIQUITIN LIGASE 4 INHIBITOR COMPOUNDS AND METHODS OF THEIR USE” (ICAHN SCHOOL OF MEDICINE AT MOUNT SINAI, priority 2021, published 2024)",
  "key": {"[1]": {"molecular_target": "E3 (CUL1) (Homo sapiens (Human), UniProt Q13616)", "sequence (Q13616 whole entry)": "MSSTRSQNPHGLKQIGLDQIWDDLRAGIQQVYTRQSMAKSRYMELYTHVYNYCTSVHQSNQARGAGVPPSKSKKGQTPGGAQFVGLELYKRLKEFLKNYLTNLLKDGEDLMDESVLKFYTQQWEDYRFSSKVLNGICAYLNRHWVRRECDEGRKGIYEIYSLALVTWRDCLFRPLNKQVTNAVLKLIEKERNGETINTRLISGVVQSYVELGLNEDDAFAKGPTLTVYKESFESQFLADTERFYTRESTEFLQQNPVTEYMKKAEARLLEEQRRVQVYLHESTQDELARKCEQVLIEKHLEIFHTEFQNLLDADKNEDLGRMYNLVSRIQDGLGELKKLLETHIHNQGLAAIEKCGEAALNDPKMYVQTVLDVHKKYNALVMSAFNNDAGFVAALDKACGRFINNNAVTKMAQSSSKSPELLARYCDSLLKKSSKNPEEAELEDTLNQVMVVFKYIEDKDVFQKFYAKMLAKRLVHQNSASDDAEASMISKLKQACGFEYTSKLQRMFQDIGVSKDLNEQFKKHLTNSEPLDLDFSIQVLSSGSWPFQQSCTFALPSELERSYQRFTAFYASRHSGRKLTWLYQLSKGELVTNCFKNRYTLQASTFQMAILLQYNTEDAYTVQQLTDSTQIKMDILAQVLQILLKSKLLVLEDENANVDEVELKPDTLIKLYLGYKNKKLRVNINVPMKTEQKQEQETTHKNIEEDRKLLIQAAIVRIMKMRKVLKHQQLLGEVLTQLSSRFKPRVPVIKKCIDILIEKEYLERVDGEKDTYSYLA", "sequence (P62877 whole entry partner)": "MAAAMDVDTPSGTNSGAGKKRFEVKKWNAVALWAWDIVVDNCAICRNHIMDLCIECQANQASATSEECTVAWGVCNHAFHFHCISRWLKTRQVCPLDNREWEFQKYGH", "assay": "E3 (CUL1) inhibition (Table 1)", "type": "biochemical", "method": "The reaction mixture (15 μl) was assembled onto a 384-well microtiter plate. […] ATP (0.66 mM) was then added to the mix followed by a brief centrifugation to settle down the mixture. The resulting plate was incubated at 30° C. in the Synergy-H1 reader and the fluorescence signal was monitored. Ubiquitination was quantified based on the ratio of acceptor:donor fluorescence (excitation 515 nm; donor emission 570 nm, acceptor emission 670 nm)."}, "[2]": {"test_system": "tumor cell lines", "assay": "Cytotoxicity in a subset of tumor cell lines", "type": "cell-based", "method": "Cells (5×10^4) were seeded 24 hours before compound treatment. Compound was added to the culture media and cells were cultured with the compound for 48 hours. The treated cells were then transferred into 5 ml flow cytometry tubes and the well was washed once with PBS to collect any remaining cells. The cells were then pelleted at 500×g for 5 min with a Beckman CS-6KR centrifuge at 4° C. After removal of supernatant, the cells pellet was washed with Annexin V binding buffer (10 mM Hepes-NaOH, pH 7.4, 150 mM NaCl, 5 mM KCl, 1 mM MgCl2, and 1.8 mM CaCl2). Cells were pelleted once again and incubated in the dark with Annexin V-FITC (2 μg/ml) in binding buffer for 5 min then analyzed using LSRFortessa flow cytometer (BD).\n(§1) For cell viability assay, 10,000 cells (per well) were seeded in 96 well plates in 100 microliters of media and incubated overnight. Serial dilutions of compounds tested were then added to wells in triplicate. The cells were incubated for an additional 48 hours. […] The luminescence of each well was then read using a Synergy multi-mode plate reader (BioTek). For determining relative luminescence, the background (average reading of wells containing only media and CellTiter-Glo reagent, no cells) was first subtracted from the reading of each sample. […] Then EC50 was determined using the four parameter logistics regression standard curve."}, "[3]": {"test_system": "MV4-11 cells", "assay": "Cell viability assay (CellTiter-Glo)", "type": "cell-based", "conditions": "Homo sapiens; MV4-11, 48 hours", "method": "The ability of #33-11 to induce apoptosis was measured by Annexin V flow cytometry (FIG. 1A). EC50/EC90 for each cell line are indicated. […] Mouse pancreatic cancer cell lines K8484 and DT8082 were isolated from the KPC mice (Olive et al., “Inhibition of Hedgehog Signaling Enhances Delivery of Chemotherapy in a Mouse Model of Pancreatic Cancer,” Science 324(5933):1457-1461 (2009), which is hereby incorporated by reference in its entirety), the rest (34 in total) are all human cancer cell lines. Washout: MV4-11 cells at 10^5 cells/ml were treated with compound at concentrations as indicated (FIG. 1C). At specified hours post compound treatment, the cells were washed once with fresh complete media without compound and allowed to grow for additional 48 hours followed by viability test as in FIG. 1B.\nas §1, with “triplicate.” for “triplicate. The cells were incubated for an additional 48 hours.”"}, "[4]": {"molecular_target": "ROC1-CUL4A CTD (Homo sapiens (Human), UniProt Q13619)", "sequence (Q13619 400-759)": "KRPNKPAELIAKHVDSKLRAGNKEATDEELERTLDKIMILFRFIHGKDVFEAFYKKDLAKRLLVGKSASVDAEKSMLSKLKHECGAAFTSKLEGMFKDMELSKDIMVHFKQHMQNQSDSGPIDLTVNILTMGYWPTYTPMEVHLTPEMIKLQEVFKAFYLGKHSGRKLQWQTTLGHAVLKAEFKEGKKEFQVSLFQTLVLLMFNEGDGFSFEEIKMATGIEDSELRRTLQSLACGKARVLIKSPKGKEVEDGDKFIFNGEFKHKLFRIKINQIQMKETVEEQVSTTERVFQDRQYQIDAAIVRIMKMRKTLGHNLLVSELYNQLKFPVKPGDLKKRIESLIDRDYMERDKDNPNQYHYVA", "assay": "Ligand binding by Micro-Scale Thermophoresis (MST)", "conditions": "MST", "method": "E3 ligase complex (˜2 nmol) was labeled with fluorescent dye using Monolith NT Protein Labeling Kit Red-NHS (Nanotemper) in the presence of 20 mM MES pH 6.0 and 150 mM NaCl. Excess dye was removed using the included gravity flow column and eluted in storage buffer containing 20 mM Tris-HCl, pH 7.4, 150 mM NaCl, and 10% glycerol. The fluorescent E3 complex (˜0.01-0.06 μM) was mixed with increasing amount of compound in a buffer (20 μl) that contains phosphate-buffered saline, 0.1% TWEEN-20 and 2% prionex. Following incubation at room temperature for 30 min, the reaction mixture loaded into premium coated capillaries and analyzed in the Monolith NT.115 machine (Nanotemper). Thermophoresis was recorded for each sample and binding curve was generated and Kd was calculated using the included software. For reactions where significant ligand specific fluorescence quenching occurred (verified by manufacturer's SDS Denaturation-test protocol), the initial fluorescence quenching data was used directly to calculate the binding curve and Kd."}, "[5]": {"molecular_target": "ROC1-CUL3 (Homo sapiens (Human), UniProt Q13618)", "sequence (Q13618 whole entry)": "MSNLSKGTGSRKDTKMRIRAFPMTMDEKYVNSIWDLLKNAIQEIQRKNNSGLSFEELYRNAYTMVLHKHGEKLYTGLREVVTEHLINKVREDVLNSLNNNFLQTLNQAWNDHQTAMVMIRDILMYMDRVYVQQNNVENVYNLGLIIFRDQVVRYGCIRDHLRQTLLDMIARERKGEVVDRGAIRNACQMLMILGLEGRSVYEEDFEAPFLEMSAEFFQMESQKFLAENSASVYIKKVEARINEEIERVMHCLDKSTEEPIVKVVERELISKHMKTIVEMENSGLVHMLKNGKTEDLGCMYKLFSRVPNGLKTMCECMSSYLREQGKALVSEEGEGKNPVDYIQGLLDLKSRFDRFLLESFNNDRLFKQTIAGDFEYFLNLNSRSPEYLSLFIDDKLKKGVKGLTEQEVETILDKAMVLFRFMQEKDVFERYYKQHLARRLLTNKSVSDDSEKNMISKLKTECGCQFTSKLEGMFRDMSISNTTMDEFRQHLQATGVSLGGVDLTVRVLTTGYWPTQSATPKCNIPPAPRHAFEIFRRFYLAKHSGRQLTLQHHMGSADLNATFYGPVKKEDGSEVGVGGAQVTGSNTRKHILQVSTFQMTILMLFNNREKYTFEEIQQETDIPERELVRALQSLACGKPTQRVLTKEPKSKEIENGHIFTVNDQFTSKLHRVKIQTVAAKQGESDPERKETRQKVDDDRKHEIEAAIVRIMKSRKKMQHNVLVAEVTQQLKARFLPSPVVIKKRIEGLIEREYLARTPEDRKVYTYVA", "sequence (P62877 whole entry partner)": "as the sequence (P62877 whole entry partner) above", "assay": "Gel-based di-Ub synthesis", "type": "biochemical", "conditions": "up to 150 μM"}, "[6]": {"molecular_target": "ROC1-CUL4A (Homo sapiens (Human), UniProt Q13619)", "sequence (Q13619 39-759)": "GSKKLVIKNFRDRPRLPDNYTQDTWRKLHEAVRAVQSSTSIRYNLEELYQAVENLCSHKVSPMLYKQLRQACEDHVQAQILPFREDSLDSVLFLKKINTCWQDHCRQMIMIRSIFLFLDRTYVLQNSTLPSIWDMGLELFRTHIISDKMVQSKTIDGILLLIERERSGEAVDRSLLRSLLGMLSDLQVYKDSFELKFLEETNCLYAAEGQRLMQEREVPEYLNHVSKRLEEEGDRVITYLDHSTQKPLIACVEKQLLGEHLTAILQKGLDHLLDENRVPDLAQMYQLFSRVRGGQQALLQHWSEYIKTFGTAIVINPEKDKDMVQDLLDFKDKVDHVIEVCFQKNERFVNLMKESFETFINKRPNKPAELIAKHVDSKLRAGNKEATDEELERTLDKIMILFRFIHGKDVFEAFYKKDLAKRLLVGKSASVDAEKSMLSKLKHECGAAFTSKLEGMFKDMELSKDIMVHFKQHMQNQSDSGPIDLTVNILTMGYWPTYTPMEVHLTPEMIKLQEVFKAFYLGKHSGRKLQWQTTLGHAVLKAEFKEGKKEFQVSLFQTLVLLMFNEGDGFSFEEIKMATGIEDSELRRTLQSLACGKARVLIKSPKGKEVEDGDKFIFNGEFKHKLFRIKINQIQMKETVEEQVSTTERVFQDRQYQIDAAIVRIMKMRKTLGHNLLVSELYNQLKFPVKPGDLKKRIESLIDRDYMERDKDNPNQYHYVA", "sequence (P62877 15-108 partner)": "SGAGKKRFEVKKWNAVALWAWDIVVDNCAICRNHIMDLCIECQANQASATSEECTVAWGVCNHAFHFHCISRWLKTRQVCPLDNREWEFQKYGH", "assay": "32P-Ub chain elongation by ROC1-CUL4A", "type": "biochemical", "set-up": "concentration or dose not given beside the values", "conditions": "relative to KH-4-43", "method": "The reaction was incubated for 5 min at 37° C. […] The reaction was incubated for 5 min at room temperature. In the second step (chase), the completed Cdc34b-Ub thiol ester reaction mixture was combined with one third of the completed mono-ubiquitination mixture. The final volume was adjusted to 10 μl with a mix that contained 50 mM Tris-HCl (pH 7.4), 0.5 mM DTT, 0.1 mg/ml of BSA, 5 mM MgCl2, and 2 mM ATP. Compounds were added where indicated. The chase reaction was incubated for 10 min at 37° C. The reaction products were separated by 4-20% SDS-polyacrylamide gel electrophoresis. The reaction scheme was identical to the one described above for FIGS. 12A-B. […] The reaction products, separated by SDS-PAGE, were visualized and analyzed by phospho-imaging using Typhoon 9500 scanner."}, "[7]": {"assay": "Kinetic solubility", "type": "physicochemical", "conditions": "pH 7.4", "method": "ADME studies on compounds #33-11 and KH-4-43 for “absorption, distribution, metabolism, and excretion” were carried out at CRO, BioDuro. Kinetic solubility, plasma and microsome stability in rat, mouse and human, as well as Caco-2 Permeability were examined."}, "[8]": {"molecular_target": "Nedd8-ROC1-CUL4A (Homo sapiens (Human), UniProt Q13619)", "sequence (Q13619 39-759 limits assumed)": "as the sequence (Q13619 39-759) above", "sequence (P62877 15-108 partner limits assumed)": "as the sequence (P62877 15-108 partner) above", "sequence (Q15843 1-76 partner limits assumed)": "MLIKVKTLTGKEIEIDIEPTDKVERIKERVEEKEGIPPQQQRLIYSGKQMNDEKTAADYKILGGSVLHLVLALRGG", "assay": "Ub chain assembly measured by Coomassie stain", "type": "biochemical", "conditions": "10 μM", "method": "(§2) Reaction mixture contained 2 mM ATP, 10 mM MgCl2, 0.01 μg/μl of GST-E1 (Ub), 0.01 μg/μl of Cdc34, 0.1 μg/μl of Nedd8-ROC1-CUL1 or Nedd8-ROC1-CUL4A, and 1 μg/μl of Ub. Where indicated, DMSO and compound were added. The reaction was incubated at 37° C. for 60 min. Following separation of reaction products by SDS-PAGE, proteins were visualized by Coomassie stain."}, "[9]": {"molecular_target": "Nedd8-ROC1-CUL1 (Homo sapiens (Human), UniProt Q13616)", "sequence (Q13616 whole entry)": "as the sequence (Q13616 whole entry) above", "sequence (P62877 whole entry partner)": "as the sequence (P62877 whole entry partner) above", "sequence (Q15843 1-76 partner)": "as the sequence (Q15843 1-76 partner limits assumed) above", "assay": "Ub chain assembly measured by Coomassie stain", "type": "biochemical", "method": "as §2"}, "[10]": {"molecular_target": "ROC1-CUL2 (Homo sapiens (Human), UniProt Q13617)", "sequence (Q13617 whole entry)": "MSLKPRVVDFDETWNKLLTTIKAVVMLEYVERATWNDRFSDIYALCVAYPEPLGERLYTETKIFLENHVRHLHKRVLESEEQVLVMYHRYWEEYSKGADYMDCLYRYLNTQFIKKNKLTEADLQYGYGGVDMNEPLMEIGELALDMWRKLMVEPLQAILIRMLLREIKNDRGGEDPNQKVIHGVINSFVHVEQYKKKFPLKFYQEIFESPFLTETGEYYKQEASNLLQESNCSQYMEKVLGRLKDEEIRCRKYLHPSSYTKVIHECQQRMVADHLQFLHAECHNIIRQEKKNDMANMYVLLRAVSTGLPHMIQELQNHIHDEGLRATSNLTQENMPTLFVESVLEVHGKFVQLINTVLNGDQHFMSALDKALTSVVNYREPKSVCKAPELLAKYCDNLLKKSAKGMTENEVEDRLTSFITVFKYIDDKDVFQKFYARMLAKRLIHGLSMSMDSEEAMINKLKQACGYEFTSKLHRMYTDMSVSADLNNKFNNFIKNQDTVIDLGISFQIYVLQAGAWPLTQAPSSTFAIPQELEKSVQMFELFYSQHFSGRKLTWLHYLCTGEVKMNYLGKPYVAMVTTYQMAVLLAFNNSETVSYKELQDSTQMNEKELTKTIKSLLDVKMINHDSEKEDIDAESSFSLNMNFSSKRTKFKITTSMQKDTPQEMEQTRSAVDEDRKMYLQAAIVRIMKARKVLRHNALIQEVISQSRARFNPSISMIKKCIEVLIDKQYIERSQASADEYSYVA", "sequence (P62877 whole entry partner)": "as the sequence (P62877 whole entry partner) above", "assay": "Gel-based di-Ub synthesis", "type": "biochemical", "conditions": "up to 150 μM"}, "[11]": {"assay": "Mouse tolerance/toxicity study"}},
  "data": [
    {"compound": "O=c1c(-c2cnn(-c3ccc(Cl)cc3)c2)c(C(F)(F)F)oc2c(O)c(O)ccc12", "note": "[KH-4-43, 3-(1-(4-chlorophenyl)-1H-pyrazol-4-yl)-7,8-dihydroxy-2-(trifluoromethyl)-4H-chromen-4-one]", "values": [
      {"measurement": "EC50", "setting": "[1]", "value": 7, "unit": "µM"},
      {"measurement": "EC50", "setting": "[2]", "value": "~2", "unit": "µM"},
      {"measurement": "EC50", "setting": "[3]", "value": 3, "unit": "µM"}
    ]},
    {"compound": "O=c1c(-c2cnn(-c3ccccc3)c2)c(C(F)(F)F)oc2c(O)c(O)ccc12", "note": "[#33-11, 7,8-dihydroxy-3-(1-phenyl-1H-pyrazol-4-yl)-2-(trifluoromethyl)-4H-chromen-4-one]", "values": [
      {"measurement": "Kd", "setting": "[4]", "value": 0.223, "unit": "µM"},
      {"measurement": "level of di-Ub product", "setting": "[5]", "value": "remained almost unchanged"},
      {"measurement": "E3 CRL4 Relative Inhibition", "setting": "[6]", "value": 37, "unit": "%"},
      {"measurement": "Kinetic solubility, rating", "setting": "[7]", "value": "moderate solubility"},
      {"measurement": "effect on Ub chain assembly", "setting": "[8]", "value": "block the utilization of free Ub"},
      {"measurement": "effect on Ub chain assembly", "setting": "[9]; 1 mM", "value": "blocked the utilization of Ub"},
      {"measurement": "effect on Ub chain assembly", "setting": "[9]; 10 or 100 μM", "value": "little effect"},
      {"measurement": "level of di-Ub product", "setting": "[10]", "value": "remained almost unchanged"},
      {"measurement": "necropsy findings", "setting": "[11]; 50 mg/kg", "value": "no adverse effects"},
      {"measurement": "body weight loss", "setting": "[11]; 50 mg/kg IP daily, 7 days", "value": "no significant body weight loss"}
    ]}
  ]
}
